# Activity calls are given as the source filed them. No cut-off for these calls is given here.
# Tests used:
# Type in all cases: functional
# [1] = system: Mycobacterium tuberculosis; assay: Antitubercular activity against Mycobacterium tuberculosis H37Rv after 21 days by broth microdilution method; details: 504 h
# Staphylococcus aureus [2] = assay: Antibacterial activity against Staphylococcus aureus ATCC 6538 by tube dilution method
# Staphylococcus aureus [3] = assay: Antibacterial activity against Staphylococcus aureus ATCC 6538 by disk diffusion method
# Escherichia coli [4] = assay: Antibacterial activity against Escherichia coli ATCC 8739 by disk diffusion method
# Proteus mirabilis [5] = assay: Antibacterial activity against Proteus mirabilis ATCC 14153 by disk diffusion method
# Klebsiella pneumoniae [6] = assay: Antibacterial activity against Klebsiella pneumoniae ATCC 4352 by disk diffusion method
# Streptococcus [7] = assay: Antibacterial activity against beta-haemolyticus Streptococcus isolate by tube dilution method
# Streptococcus [8] = assay: Antibacterial activity against beta-haemolyticus Streptococcus isolate by disk diffusion method
# Enterococcus faecalis [9] = assay: Antibacterial activity against Enterococcus faecalis ATCC 29212 by tube dilution method
# Enterococcus faecalis [10] = assay: Antibacterial activity against Enterococcus faecalis ATCC 29212 by disk diffusion method
# Pseudomonas aeruginosa [11] = assay: Antibacterial activity against Pseudomonas aeruginosa ATCC 9027 by tube dilution method
# Pseudomonas aeruginosa [12] = assay: Antibacterial activity against Pseudomonas aeruginosa ATCC 9027 by disk diffusion method
# Klebsiella pneumoniae [13] = assay: Antibacterial activity against Klebsiella pneumoniae ATCC 4352 by tube dilution method
# Proteus mirabilis [14] = assay: Antibacterial activity against Proteus mirabilis ATCC 14153 by tube dilution method
# Escherichia coli [15] = assay: Antibacterial activity against Escherichia coli ATCC 8739 by tube dilution method
structure (smiles),measurement,setting,value
COc1cc2c3c(ccc2c(C)c1C)C=C(C(C)C)C(=O)C3=O [MULTIORTHOQUINONE],MIC,[1],2 µg/mL
same,MIC,Staphylococcus aureus [2],0.1 µg/mL
same,inhibition zone (IZ),Staphylococcus aureus [3],>7 mm
same,Activity,Escherichia coli [4],inactive
same,Activity,Proteus mirabilis [5],inactive
same,Activity,Klebsiella pneumoniae [6],inactive
same,MIC,Streptococcus [7],0.1 µg/mL
same,inhibition zone (IZ),Streptococcus [8],>7 mm
same,MIC,Enterococcus faecalis [9],2 µg/mL
same,inhibition zone (IZ),Enterococcus faecalis [10],>7 mm
same,MIC,Pseudomonas aeruginosa [11],0.5 µg/mL
same,inhibition zone (IZ),Pseudomonas aeruginosa [12],>7 mm
Cc1ccc2c(ccc3cc(C(C)C)c(O)cc32)c1C,MIC,[1],0.46 µg/mL
same,Activity,Staphylococcus aureus [3],inactive
same,Activity,Escherichia coli [4],inactive
same,Activity,Proteus mirabilis [5],inactive
same,MIC,Klebsiella pneumoniae [13],15.6 µg/mL
same,inhibition zone (IZ),Klebsiella pneumoniae [6],>7 mm
same,MIC,Streptococcus [7],2 µg/mL
same,inhibition zone (IZ),Streptococcus [8],>7 mm
same,Activity,Enterococcus faecalis [10],inactive
same,MIC,Pseudomonas aeruginosa [11],15.6 µg/mL
same,inhibition zone (IZ),Pseudomonas aeruginosa [12],>7 mm
Nc1ccc(C(=O)O)c(O)c1 [AMINOSALICYLIC ACID],MIC,[1],5 µg/mL
CO[C@H]1/C=C/O[C@@]2(C)Oc3c(C)c(O)c4c(O)c(c(/C=N/N5CCN(C)CC5)c(O)c4c3C2=O)NC(=O)/C(C)=C\C=C\[C@H](C)[C@H](O)[C@@H](C)[C@@H](O)[C@@H](C)[C@H](OC(C)=O)[C@@H]1C [RIFAMPIN],MIC,[1],0.5 µg/mL
NC[C@H]1O[C@H](O[C@H]2[C@H](O)[C@@H](O[C@H]3O[C@H](CO)[C@@H](O)[C@H](N)[C@H]3O)[C@H](N)C[C@@H]2N)[C@H](O)[C@@H](O)[C@@H]1O [KANAMYCIN],MIC,[1],5 µg/mL
COC1=C(C(C)C)C(=O)C2=C(C1=O)[C@@]1(C)CCCC(C)(C)C1=C[C@H]2O,MIC,[1],1.2 µg/mL
COC1=C(C(C)C)C(=O)C2=C(C1=O)[C@@]1(C)CCCC(C)(C)C1=C[C@H]2OC(C)=O,MIC,[1],0.89 µg/mL
same,Activity,Staphylococcus aureus [3],inactive
same,Activity,Escherichia coli [4],inactive
same,Activity,Proteus mirabilis [5],inactive
same,MIC,Klebsiella pneumoniae [13],7.2 µg/mL
same,inhibition zone (IZ),Klebsiella pneumoniae [6],>7 mm
same,Activity,Streptococcus [8],inactive
same,Activity,Enterococcus faecalis [10],inactive
same,Activity,Pseudomonas aeruginosa [12],inactive
NNC(=O)c1ccncc1 [ISONIAZID],MIC,[1],0.2 µg/mL
C=C[C@]1(C)C=C2[C@@H](O)C[C@H]3C(C)(C)C(=O)CC[C@]3(C)[C@]2(O)C(=O)C1 [SALVIPIMARONE],MIC,[1],7.3 µg/mL
same,Activity,Staphylococcus aureus [3],inactive
same,Activity,Escherichia coli [4],inactive
same,MIC,Proteus mirabilis [14],3.6 µg/mL
same,inhibition zone (IZ),Proteus mirabilis [5],>7 mm
same,Activity,Klebsiella pneumoniae [6],inactive
same,Activity,Streptococcus [8],inactive
same,MIC,Enterococcus faecalis [9],3.6 µg/mL
same,Activity,Enterococcus faecalis [10],inactive
same,Activity,Pseudomonas aeruginosa [12],inactive
CN[C@@H]1[C@H](O[C@H]2[C@H](O[C@H]3[C@H](O)[C@@H](O)[C@H](N=C(N)N)[C@@H](O)[C@@H]3N=C(N)N)O[C@@H](C)[C@]2(O)C=O)O[C@@H](CO)[C@H](O)[C@H]1O [STREPTOMYCIN],MIC,[1],2 µg/mL
Cc1c(O)cc2c3c(ccc2c1C)C=C(C(C)C)C(=O)C3=O [DEMETHYLMULTIORTHOQUINONE],MIC,[1],1.2 µg/mL
same,Activity,Staphylococcus aureus [3],inactive
same,MIC,Escherichia coli [15],4.6 µg/mL
same,inhibition zone (IZ),Escherichia coli [4],>7 mm
same,Activity,Proteus mirabilis [5],inactive
same,Activity,Klebsiella pneumoniae [6],inactive
same,Activity,Streptococcus [8],inactive
same,Activity,Enterococcus faecalis [10],inactive
same,Activity,Pseudomonas aeruginosa [12],inactive
COc1cc2c(ccc3c(C)c(C)ccc32)cc1C(C)C [MULTICAULIN],MIC,[1],5.6 µg/mL
same,MIC,Staphylococcus aureus [2],0.2 µg/mL
same,inhibition zone (IZ),Staphylococcus aureus [3],>7 mm
same,MIC,Escherichia coli [15],0.7 µg/mL
same,inhibition zone (IZ),Escherichia coli [4],>7 mm
same,MIC,Proteus mirabilis [14],1.4 µg/mL
same,inhibition zone (IZ),Proteus mirabilis [5],>7 mm
same,Activity,Klebsiella pneumoniae [6],inactive
same,MIC,Streptococcus [7],0.2 µg/mL
same,inhibition zone (IZ),Streptococcus [8],>7 mm
same,Activity,Enterococcus faecalis [10],inactive
same,Activity,Pseudomonas aeruginosa [12],inactive
CC[C@@H](CO)NCCN[C@@H](CC)CO [ETHAMBUTOL],MIC,[1],5 µg/mL
CCc1cc(C(N)=S)ccn1 [ETHIONAMIDE],MIC,[1],5 µg/mL

# — ChEMBL document CHEMBL1158325, “Norditerpenoids and diterpenoids from Salvia multicaulis with antituberculous activity” (1997)
